Results reported in PMC9856044 (Biomolecules, 2023).
Counter-ions that a name gives are not always drawn.

Key:
[1] = system: Tel22 (DNA, G4) AGGGTTAGGGTTAGGGTTAGGG; test: fluorescence titration (SPECFIT); conditions: pH 7.0, 25 °C; for logKa: K+ (potassium phosphate, I = 0.1 M); for logKa1: Na+ (sodium cacodylate, I = 0.1 M)
[2] = system: poly A–poly U (AU-RNA) (RNA, polymer) A/U; test: CD titration (ICD); conditions: Na+ (sodium cacodylate, I = 0.05 M), pH 7.0, 25 °C
[3] = system: Tel22 (DNA, G4) AGGGTTAGGGTTAGGGTTAGGG; test: UV thermal melting, 260 nm; conditions: pH 7.0, Tel22 2 µM, r = 1.0 (compound 2 µM)
[4] = system: poly(dAdT)2 (AT-DNA) (DNA, polymer) AT; test: CD titration (ICD); conditions: Na+ (sodium cacodylate, I = 0.05 M), pH 7.0, 25 °C
[5] = system: poly(dGdC)2 (GC-DNA) (DNA, polymer) GC; test: CD titration (ICD); conditions: Na+ (sodium cacodylate, I = 0.05 M), pH 7.0, 25 °C
[6] = system: poly(dAdT)2 (AT-DNA) (DNA, polymer) AT; test: UV thermal melting, 260 nm; conditions: Na+ (sodium cacodylate, I = 0.05 M); pH 7.0; r [compound]/[nucleotide phosphate] = 0.1; per base
[7] = Solubility and aggregation (UV/Vis characterization); format: physicochemical; conditions: for Aggregation in aqueous buffer: sodium cacodylate buffer, I = 0.05 mol dm^−3, pH = 7.0, UV/Vis
Procedure: The UV/vis spectra were recorded on a Varian Cary 100 Bio spectrophotometer (Agilent, Santa Clara, CA, USA), CD spectra on JASCO J815 spectrophotometer (ABL&E Handels GmbH, Wien, Austria) and fluorescence spectra on a Varian Cary Eclipse spectrophotometer (Agilent, Santa Clara, CA, USA) at 25 °C using appropriate 1 cm path quartz cuvettes.
Studied compounds, 1–6 were soluble (c = 8 × 10^−4 mol dm^−3) in DMSO. […] Therefore, the stock solution of 2 was prepared fresh before use. The experiments were done in aqueous buffer (sodium cacodylate buffer, I = 0.05 mol dm^−3; pH = 7.0).
However, the shape of UV/Vis spectra of cyanine 2 changed with increasing concentration (calibration experiment in Figure S2 in SI). In addition to the dominant maximum at 432 nm (which most likely corresponds to the monomer form of the dye), the absorption band at 413 nm becomes more intense (Figure S2 in SI). Presumably, it corresponds to the aggregated form (H-aggregate). Based on the existence of an absorption band at 432 nm, only the monomer dye form is visible at high temperature (95 °C) (Figure S8b in SI). However, after cooling the solution to 25 °C, an additional band appears at 413 nm, which corresponds to the aggregated dye form.

Tel22 G-quadruplex [8] = test: Thermal melting of Tel22 in sodium cacodylate buffer; format: binding, human; conditions: Tel22, r = 1.0, sodium cacodylate buffer, pH = 7.0, I = 0.1 mol dm^−3; error ± 0.5 °C
Procedure: (§1) Thermal melting curves for DNA, RNA and their complexes with studied compounds were determined as previously described by following the absorption change at 260 nm as a function of temperature. The absorbance of the ligands was subtracted from every curve and the absorbance scale was normalized. Tm values are the midpoints of the transition curves determined from the maximum of the first derivative and checked graphically by the tangent method. The ∆Tm values were calculated by subtracting Tm of the free nucleic acid from Tm of the complex. Every ∆Tm value here reported was the average of two measurements. The error in ∆Tm is ±0.5 °C. 5′-AGGG(TTAGGG)3–3′(Tel22) was obtained from IDT (Integrated DNA Technologies, Coralville, IA, USA). Tel22 was dissolved in 0.1 M either in sodium cacodylate or potassium phosphate buffer. The starting Tel22 oligonucleotide solution was first heated up to 95 °C for 10 min, then slowly cooled to 10 °C at the cooling rate of 1 °C/min to allow DNA oligonucleotide to adopt a G-quadruplex structure. The G-quadruplex structure was confirmed by thermal melting and CD spectra. The concentration of G quadruplex was expressed in terms of oligonucleotide structure. In fluorimetric titrations, aliquots of Tel 22 solution were added to the solution of ligands (c ~ 2 × 10^−7 M, in SI).

Fibroblasts = test: MTT cytotoxicity assay, normal human skin fibroblasts; format: cell-based; conditions: Fibroblast, 72 h incubation, ± SD
Procedure: (§2) Human cervical carcinoma HeLa (GIBCO BRL, Invitrogen, Waltham, MA, USA), human melanoma MDA-MB-435S and human ovarian adenocarcinoma SK-OV-3 (ATCC-LGC Standards GmbH, Wesel, Germany) cell lines were purchased from indicated cell culture banks. Normal human skin fibroblasts were isolated from the upper arm of a donor at the Neurochemical Laboratory, Department of Chemistry and Biochemistry, School of Medicine, University of Zagreb. HeLa, MDA-MB-435S and fibroblasts were grown in Dulbecco’s Modified Eagle’s Medium (DMEM; Sigma-Aldrich, St. Louis, MI, USA) while the SK-OV-3 cell line was grown in McCoy’s 5A medium (Capricorn Scientific, Ebsdorfergrund, Germany). All media were supplemented with 10% fetal bovine serum (FBS; Sigma-Aldrich) and 50 I.U./mL penicillin and 50 μg/mL streptomycin. Cells were cultured in a humidified atmosphere of 5% CO2 at 37 °C and were sub-cultured every 3–4 days. HeLa, MDA-MB-435S, SK-OV-3 cells and fibroblasts were seeded in 96 well plates. Twenty-four hours later the cells were treated, in quadruplicate, with different concentrations of compounds (dissolved in DMSO, kept at 4 °C and protected from light). Following 72 h of incubation at 37 °C, the medium was aspired and modified 3-(4,5-dimethylthiazol-2-yl)-2,5-diphenyltetrazolium bromide (MTT) assay was used to determine the cytotoxic effect of the tested compounds. Three hours later, formazan crystals were dissolved in DMSO (0.17 mL/well), the plates were mechanically agitated for 20 min and the optical density at 600 nm was determined on a microtiter plate reader (Awareness Technology Inc., Palm City, FL, USA). The experiments were repeated three times.

MDA-MB-435S cells = test: MTT cytotoxicity assay, MDA-MB-435S; format: cell-based; conditions: Homo sapiens, 72 h incubation, ± SD
Procedure: as §2

[9] = biological target: Tel22 (5′-AGGG(TTAGGG)3–3′) G-quadruplex; test: Fluorimetric titration with Tel22 in potassium phosphate buffer (K+ solution); format: binding, human; conditions: Tel22, potassium phosphate buffer, pH = 7.0, I = 0.1 mol dm^−3; SPECFIT fit
Procedure: (§3) Materials. Polynucleotides were purchased as noted: poly A–poly U, calf thymus ctDNA, poly(dAdT)2 and poly(dGdC)2 (Sigma-Aldrich, St. Louis, MI, USA). Polynucleotides were dissolved in Na-cacodylate buffer, I = 0.05 mol dm^−3, pH = 7.0. The calf thymus ctDNA was additionally sonicated and filtered through a […]. Polynucleotide concentration was determined spectroscopically as the concentration of phosphates. Spectrophotometric titrations were performed at pH = 7.0 (I = 0.05 mol dm^−3, sodium cacodylate buffer) by adding aliquots of polynucleotide solution into the solution of the studied compound for fluorimetric experiments and CD experiments were done by adding aliquots of the compound stock solution into the solution of a polynucleotide. In fluorimetric experiments, an excitation wavelength of λexc = 425, 431, 423, 427, 406 and 407 nm, respectively, was used to avoid the inner filter effect caused due to increasing absorbance of the polynucleotide. Emission was collected in the range λem = 400–700 nm. Values for Ka obtained by processing titration data using the Scatchard equation [27], all have satisfactory correlation coefficients (≥0.98).
as §1
(§4) Binding constants (log Ka) and stoichiometry of complexes were calculated from the fluorimetric data using non-linear least-square program SPECFIT [46], in the concentration range that corresponded to 20–80% complex formed.

SK-OV-3 cells = test: MTT cytotoxicity assay, SK-OV-3; format: cell-based; conditions: Homo sapiens, SK-OV-3, 72 h incubation, ± SD
Procedure: as §2

HeLa cells = test: MTT cytotoxicity assay, HeLa; format: cell-based; conditions: Homo sapiens, 72 h incubation, ± SD
Procedure: as §2

Tel22 G-quadruplex [10] = test: Thermal melting of Tel22 in potassium phosphate buffer; format: binding, human; conditions: Tel22, r = 1.0, potassium phosphate buffer, pH = 7.0, I = 0.1 mol dm^−3; error ±0.5 °C
Procedure: as §1

[11] = biological target: Tel22 (5′-AGGG(TTAGGG)3–3′) G-quadruplex; test: Fluorimetric titration with Tel22 in sodium cacodylate buffer (Na+ solution); format: binding, human
Procedure: as §3, §1, §4

[12] = K+ (potassium phosphate, I = 0.1 M)
[13] = Na+ (sodium cacodylate, I = 0.1 M)

Question: What does the source list for `CN1C(=Cc2[se]c3ccccc3[n+]2C)Sc2ccccc21`?
Answer: logKa [1]: 6.88 ± 0.05; logKa1 ([1]; site 1 of 2): 7.26 ± 0.41; binding ([2]; bisignate ICD +405/−385 nm): yes; ∆Tm [3, 12]: 0.5 °C; ∆Tm [3, 13]: 0.5 °C; binding ([4]; positive ICD at 440 nm): yes

Question: For `C[n+]1c(C=C2Sc3ccccc3N2CCS)[se]c2ccccc21`, which binding ([5]; bisignate ICD +440/−400 nm) is on record?
Answer: yes

Question: And the binding ([2]; bisignate ICD)?
Answer: yes

Question: What about the “∆Tm” value [3, 12] of the same compound?
Answer: 6.9 °C

Question: What about the “∆Tm” value [3, 13] of the same compound?
Answer: 2.0 °C

Question: What about the binding ([4]; bisignate ICD +440/−400 nm) of the same compound?
Answer: yes

Question: With `CN1C(=Cc2[se]c3ccccc3[n+]2C)Sc2cc(Cl)ccc21` as the compound, how does the logKa [1] read?
Answer: 7.78 ± 0.18

Question: What about the logKa1 [1] of the same compound?
Answer: 6.19 ± 0.01

Question: And the binding ([5]; bisignate ICD +440/−410 nm)?
Answer: yes

Question: And the binding ([2]; bisignate ICD +405/−385 nm)?
Answer: yes

Question: And the “∆Tm” value [3, 12]?
Answer: 3.2 °C

Question: What about the “∆Tm” value [3, 13] of the same compound?
Answer: 2.1 °C

Question: And the binding ([4]; positive ICD at 440 nm)?
Answer: yes

Question: With `C[n+]1c(C=C2Sc3ccccc3N2CCCS)[se]c2ccccc21` as the compound, how does the “∆Tm” value [3, 12] read?
Answer: 5.1 °C

Question: What about the “∆Tm” value [3, 13] of the same compound?
Answer: 2.1 °C

Question: And the “∆Tm” value [6]?
Answer: 4 °C

Question: Which results are given for `COc1ccc2c(c1)SC(=Cc1[se]c3ccccc3[n+]1C)N2CCCS(=O)(=O)[O-]` [Compound 2, 3-(6-methoxy-2-((3-methylbenzo[d][1,3]selenazol-3-ium-2-yl)methylene)benzo[d]thiazol-3(2H)-yl)propane-1-sulfonate]?
Answer: melting point: > 300 °C; ∆Tm [3, 13]: 0 °C; Aggregation in DMSO stock solution ([7]; DMSO, after several weeks): prone to aggregation; Aggregation in aqueous buffer [7]: mixture of monomer and aggregated form; ∆Tm (Tel22 G-quadruplex [8]): 0 °C

Question: With `C[n+]1c(/C=C2\Sc3ccccc3N2CCS)[se]c2ccccc21` (as salt: sulphate) [Compound 6, 2-((3-(2-mercaptoethyl)benzo[d]thiazol-2(3H)-ylidene)methyl)-3-methylbenzo[d][1,3]selenazol-3-ium methosulphate] as the compound, how does the melting point read?
Answer: 245 to 247 °C

Question: With `CN1/C(=C/c2[se]c3ccccc3[n+]2C)Sc2cc(Cl)ccc21` (as salt: sulphate) [Compound 4, 2-((6-chloro-3-methylbenzo[d]thiazol-2(3H)-ylidene)methyl)-3-methylbenzo[d][1,3]selenazol-3-ium methosulphate] as the compound, how does the melting point read?
Answer: > 300 °C

Question: Which melting point does the source give for `CN1/C(=C/c2[se]c3ccccc3[n+]2C)Sc2ccccc21` (as salt: sulphate) [Compound 3, 3-methyl-2-((3-methylbenzo[d]thiazol-2(3H)-ylidene)methyl)benzo[d][1,3]selenazol-3-ium methosulphate] here?
Answer: > 300 °C

Question: Which results are given for `CN1/C(=C/c2[se]c3ccccc3[n+]2C)Sc2cc(Cl)ccc21` [Compound 4, 2-((6-chloro-3-methylbenzo[d]thiazol-2(3H)-ylidene)methyl)-3-methylbenzo[d][1,3]selenazol-3-ium methosulphate]?
Answer: IC50 (Fibroblasts): > 2500 nM; IC50 (MDA-MB-435S cells): 614 ± 77.6 nM; logKa (L + G ⇆ LG, 1:1 complex) [9]: 7.78 ± 0.18; Aggregation in aqueous buffer [7]: do not form aggregates; IC50 (SK-OV-3 cells): 1320 ± 125 nM; ∆Tm (Tel22 G-quadruplex [8]): 2.1 °C; IC50 (HeLa cells): 793 ± 157 nM; ∆Tm (Tel22 G-quadruplex [10]): 3.2 °C; logKa1 (L + G ⇆ LG) ([11]; Tel22, sodium cacodylate buffer, pH = 7.0, I = 0.1 mol dm^−3, SPECFIT fit of fluorescence titration): 6.19 ± 0.01; Selectivity for G-quadruplex over duplex DNA ([11]; binding affinities Tel22 vs duplex DNA, in both the Na+ and K+ solutions): 100 fold

Question: With `C[n+]1c(/C=C2\Sc3ccccc3N2CCCS)[se]c2ccccc21` (as salt: sulphate) [Compound 5, 2-((3-(3-mercaptopropyl)benzo[d]thiazol-2(3H)-ylidene)methyl)-3-methylbenzo[d][1,3]selenazol-3-ium methosulphate] as the compound, how does the melting point read?
Answer: 233 to 236 °C
